Test results: patent publication US8933018B2, “Boron containing polybasic bacterial efflux pump inhibitors and therapeutic uses thereof” (priority 2011, dated 2015)
Like-named read-outs stand apart in the source and are kept apart here.

Key:
[1] = tested on: P. aeruginosa, PAM1723, overexpressing the MexAB-OprM efflux pump; format: cell-based, Pseudomonas aeruginosa; conditions: lowest EPI concentration giving antibacterial activity with levofloxacin at 1/8 of its MIC, MHB, 20 h at 35° C.
Outline: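 Checkerboard microdilution in Mueller Hinton Broth, with EPI concentrations varied along one axis. The inoculum was 5 times 10^5 CFU/ml from early-log culture. Plates were incubated 20 h at 35° C, and growth was read at 650 nm and by visual inspection.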

[2] = tested on: P. aeruginosa PAM3062, which overexpresses the MexAB-OprM efflux pump; format: in vivo, Pseudomonas aeruginosa; conditions: neutropenic rats, lung, 1.5 hr IV infusion, 24 hours after start of treatment
Procedure: Rats are made neutropenic by administration of a 75 mg/kg dose of cyclophosphamide 2 days prior to infection. Immediately prior to infection, rats are anesthetized with isoflurane. Lung infection is established by intratracheal instillation of ˜1×10^7 CFU/lung. P. aeruginosa PAM3062, which overexpresses the MexAB-OprM efflux pump, is used for infection. All treatments are initiated 4 hours after infection and are administered by 1.5 hr IV infusion twice daily. Rats are sacrificed 24 hours after the start of treatment; lungs are homogenized, serially diluted, and plated to determine colony counts.

Question: With `NCCN(CCN)C(=O)CC[C@H](N)C(=O)N[C@H](Cc1ccc(C(F)(F)F)cc1)C(=O)Nc1cccc(B(O)O)c1` [Compound 2] as the compound, how does the “MPC8 (Minimum Potentiating Concentration)” value (“MPC8” for short) [1] read?
Answer: B (B = MPC8 of 2.5 μg/ml to less than 10 μg/mL.)

Question: And the “Δlog CFU” value ([2]; levofloxacin 100 (50 BID) mg/kg + EPI 40 (20 BID) mg/kg 24 hr dose)?
Answer: −1.74

Question: With `NCCN(CCN)C(=O)CC[C@H](N)C(=O)N[C@H](CCc1ccc(C(F)(F)F)cc1)C(=O)Nc1ccc2c(c1)B(O)OC2` [Compound 6, (S)-2-amino-N5,N5-bis(2-aminoethyl)-N1-((R)-1-(1-hydroxy-1,3-dihydrobenzo[c][1,2]oxaborol-6-ylamino)-1-oxo-4-(4-(trifluoromethyl)phenyl)butan-2-yl)pentanediamide] as the compound, how does the “MPC8” value [1] read?
Answer: B (B = MPC8 of 2.5 μg/ml to less than 10 μg/mL.)

Question: What about the “Δlog CFU” value ([2]; levofloxacin 100 (50 BID) mg/kg + EPI 16 (8 BID) mg/kg 24 hr dose) of the same compound?
Answer: −2.99

Question: What does the source list for `NCCN(CCN)C(=O)CC[C@H](N)C(=O)N[C@H](CCc1ccc(C(F)(F)F)cc1)C(=O)Nc1cccc(B(O)O)c1` [Compound 14, 3-((R)-2-((S)-2-amino-5-(bis(2-aminoethyl)amino)-5-oxopentanamido)-4-(4-(trifluoromethyl)phenyl)butanamido)phenylboronic acid]?
Answer: MPC8 (Minimum Potentiating Concentration) [1]: B (B = MPC8 of 2.5 μg/ml to less than 10 μg/mL.); Δlog CFU ([2]; levofloxacin 100 (50 BID) mg/kg + EPI 20 (10 BID) mg/kg 24 hr dose): −1.13

Question: Which “MPC8” value [1] does the source give for `CC1(C)OB(O)c2cc(NC(=O)[C@@H](Cc3ccc(C(F)(F)F)cc3)NC(=O)[C@@H](N)CCC(=O)N(CCN)CCN)ccc21` [Compound 20, (S)-2-Amino-N5,N5-bis(2-aminoethyl)-N1-((R)-1-(1-hydroxy-3,3-dimethyl-1,3-dihydrobenzo[c][1,2]oxaborol-6-ylamino)-1-oxo-3-(4-(trifluoromethyl)phenyl)propan-2-yl)pentanediamide] here?
Answer: A (A = MPC8 of less than 2.5 μg/mL.)

Question: And the “Δlog CFU” value ([2]; levofloxacin 100 (50 BID) mg/kg + EPI 10 (5 BID) mg/kg 24 hr dose)?
Answer: −1.75

Question: `CC1(C)OB(O)c2c1ccc(F)c2NC(=O)[C@@H](CCc1ccc(C(F)(F)F)cc1)NC(=O)[C@@H](N)CCC(=O)N(CCN)CCN` [Compound 103, (S)-2-amino-N^5,N^5-bis(2-aminoethyl)-N^1-((R)-1-(6-fluoro-1-hydroxy-3,3-dimethyl-1,3-dihydrobenzo[c][1,2]oxaborol-7-ylamino)-1-oxo-4-(4-(trifluoromethyl)phenyl)butan-2-yl)pentanediamide] was tested. Which “MPC8” value [1] did it give?
Answer: B (B = MPC8 of 2.5 μg/ml to less than 10 μg/mL.)

Question: With `CC1(C)OB(O)c2cc(NC(=O)[C@@H](Cc3ccc(C(F)(F)F)cc3)NC(=O)[C@@H](N)CCCNC(=O)C(CN)CN)ccc21` [Compound 104, (S)-2-amino-5-(3-amino-2-(aminomethyl)propanamido)-N-((R)-1-(1-hydroxy-3,3-dimethyl-1,3-dihydrobenzo[c][1,2]oxaborol-6-ylamino)-1-oxo-3-(4-(trifluoromethyl)phenyl)propan-2-yl)pentanamide] as the compound, how does the “MPC8” value [1] read?
Answer: B (B = MPC8 of 2.5 μg/ml to less than 10 μg/mL.)

Question: With `CC1(C)OB(O)c2cc(C(=O)NC[C@@H](CCc3ccc(C(F)(F)F)cc3)NC(=O)[C@@H](N)CCC(=O)N(CCN)CCN)ccc21` [Compound 106, (S)-2-amino-N^5,N^5-bis(2-aminoethyl)-N^1-((R)-1-(1-hydroxy-3,3-dimethyl-1,3-dihydrobenzo[c][1,2]oxaborole-6-carboxamido)-4-(4-(trifluoromethyl)phenyl)butan-2-yl)pentanediamide] as the compound, how does the “MPC8” value [1] read?
Answer: B (B = MPC8 of 2.5 μg/ml to less than 10 μg/mL.)

Question: For `CC1(C)OB(O)c2cc(NC[C@@H](CCc3ccc(C(F)(F)F)cc3)NC(=O)[C@@H](N)CCC(=O)N(CCN)CCN)ccc21` [Compound 107, (S)-2-amino-N^5,N^5-bis(2-aminoethyl)-N^1-((R)-1-(1-hydroxy-3,3-dimethyl-1,3-dihydrobenzo[c][1,2]oxaborol-6-ylamino)-4-(4-(trifluoromethyl)phenyl)butan-2-yl)pentanediamide], which “MPC8” value [1] is on record?
Answer: A (A = MPC8 of less than 2.5 μg/mL.)

Question: `CC1(C)OB(O)c2cc(NC[C@@H](Cc3ccc(C(F)(F)F)cc3)NC(=O)[C@@H](N)CCC(=O)N(CCN)CCN)ccc21` [Compound 108, (S)-2-amino-N^5,N^5-bis(2-aminoethyl)-N^1-((R)-1-(1-hydroxy-3,3-dimethyl-1,3-dihydrobenzo[c][1,2]oxaborol-6-ylamino)-3-(4-(trifluoromethyl)phenyl)propan-2-yl)pentanediamide] was tested. Which “MPC8” value [1] did it give?
Answer: A (A = MPC8 of less than 2.5 μg/mL.)
